Data published in the Deep4Chem optical property database.
Where “and” joins values, the source holds several entries; their conditions need not be identical. Identical values can stand only once.

Assay: photoluminescence quantum yield (fraction); solvent given as SMILES

## O=P1(c2ccccc2)c2cccc3c4c5ccccc5c5ccccc5c4c4ccc1n4c23 (stereo not drawn)
In ClCCl
  photoluminescence quantum yield: 0.97

## N#CC1=c2c3cccc4cccc(c43)n2[B-](F)(F)[n+]2ccccc21
In C1CCOC1
  photoluminescence quantum yield: 0.86
In CC#N
  photoluminescence quantum yield: 0.96
In CCCCCC
  photoluminescence quantum yield: 0.75
In Cc1ccccc1
  photoluminescence quantum yield: 0.75
In ClCCl
  photoluminescence quantum yield: 0.88

## c1ccc(-c2nc(-c3ccccc3)nc(-c3ccc(-n4c5ccccc5c5cc6c(cc54)C4c5ccccc5C6c5ccccc54)cc3)n2)cc1
In Cc1ccccc1
  photoluminescence quantum yield: 0.77
In O=P(c1ccccc1)(c1ccccc1)c1ccccc1Oc1ccccc1P(=O)(c1ccccc1)c1ccccc1
  photoluminescence quantum yield: 0.4

## C(#Cc1ccc(C#Cc2ccc(C#Cc3ccccc3)cc2)cc1)c1ccccc1
In ClC(Cl)Cl
  photoluminescence quantum yield: 0.61

## F[B-]1(F)n2c(Oc3ccccc3)c(Cl)c(Br)c2C(Oc2ccccc2)=C2C(Br)=C(Cl)C(Oc3ccccc3)=[N+]21
In ClCCl
  photoluminescence quantum yield: 0.68

## O=C(c1ccc(N(c2ccccc2)c2ccccc2)cc1)[C@H]1[C@H](c2ccccc2)C[C@](O)(c2ccccn2)C[C@]1(O)c1ccccn1
In C1CCOC1
  photoluminescence quantum yield: 0.48
In CC#N
  photoluminescence quantum yield: 0.02
In CCO
  photoluminescence quantum yield: 0.01
In CCOC(C)=O
  photoluminescence quantum yield: 0.4
In CN(C)C=O
  photoluminescence quantum yield: 0.03
In ClCCl
  photoluminescence quantum yield: 0.25
In c1ccccc1
  photoluminescence quantum yield: 0.93

## F[B-]1(F)n2c(ccc2-c2cccs2)C(C(F)(F)F)=C2C=CC(c3cccs3)=[N+]21
In CCCCCC
  photoluminescence quantum yield: 1

## COc1cc(-c2cc(N3CCCCC3)c(C#N)c3c2-c2cccc4cccc-3c24)cc(OC)c1OC
In O
  photoluminescence quantum yield: 0.28

## Cc1csc2[n+]1[B-](F)(F)n1c(c3cccc4cccc1c43)=N2
In C1CCOC1
  photoluminescence quantum yield: 0.83
In CC#N
  photoluminescence quantum yield: 0.78
In CCCCCC
  photoluminescence quantum yield: 0.99
In Cc1ccccc1
  photoluminescence quantum yield: 0.99
In ClCCl
  photoluminescence quantum yield: 0.95

## CN(C)c1ccc(C(=O)Nc2cccc(Cl)c2)cc1
In C1CCCCC1
  photoluminescence quantum yield: 0.0031
In C1CCOC1
  photoluminescence quantum yield: 0.0263
In CC#N
  photoluminescence quantum yield: 0.0319
In CCOCC
  photoluminescence quantum yield: 0.0103

## CN(C)c1ccc(/C=C/C=C/C2=NC3C(=O)NC(N)=NC3N2[C@H]2C[C@H](O)[C@@H](CO)O2)cc1 (stereo partly drawn)
In C1COCCO1
  photoluminescence quantum yield: 0.7
In CC#N
  photoluminescence quantum yield: 0.75
In CO
  photoluminescence quantum yield: 0.58

## O=C1c2ccccc2-c2cc3ccccc3c(=O)n21
In CC#N
  photoluminescence quantum yield: 0.16
In CO
  photoluminescence quantum yield: 0.02
In CS(C)=O
  photoluminescence quantum yield: 0.12
In ClC(Cl)Cl
  photoluminescence quantum yield: 0.18

## Fc1ccc(-c2ccc(-c3cc(-c4ccccn4)nc(-c4ccccn4)c3)cc2)c(F)c1
In ClCCl
  photoluminescence quantum yield: 0.16

## Cc1ccc(-c2nc(-c3ccc(O)cc3)[nH]c2-c2ccc(C)cc2)cc1
In CO
  photoluminescence quantum yield: 0.2

## Cc1ccc(C2=C3C=CC(Nc4ccccc4)=[N+]3[B-](F)(F)n3c(Nc4ccccc4)ccc32)cc1
In CO
  photoluminescence quantum yield: 0.45

## Nc1ccc2c(c1)C(=O)NC2=O
In C1CCOC1
  photoluminescence quantum yield: 0.7 and 1
In C1COCCO1
  photoluminescence quantum yield: 0.73
In CC#N
  photoluminescence quantum yield: 0.63
In CC(C)=O
  photoluminescence quantum yield: 0.68
In CCO
  photoluminescence quantum yield: 0.21
In CN(C)C=O
  photoluminescence quantum yield: 0.91
In ClCCl
  photoluminescence quantum yield: 0.76

## CCOC(=O)c1sc2nc3c(c(C#N)c2c1N)CCCC3
In c1ccccc1
  photoluminescence quantum yield: 0.046

## Cc1ccc(-c2c3ccc([nH]3)c3nc(c(-c4ccc(C#N)cc4)c4ccc([nH]4)c4ccc([nH]4)c(-c4ccc(C)cc4)c4ccc2o4)C=C3)cc1
In C1CCOC1
  photoluminescence quantum yield: 0.179
In Cc1ccccc1
  photoluminescence quantum yield: 0.166
In c1ccccc1
  photoluminescence quantum yield: 0.175

## COc1ccc(-c2cnc(C#Cc3ccccc3)o2)cc1OC
In ClCCl
  photoluminescence quantum yield: 0.49

## COc1ccc(-c2nc(-c3ccc(C#N)cc3)[nH]c2-c2ccc(OC)cc2)cc1
In CO
  photoluminescence quantum yield: 0.6

## F[B-]1(F)Oc2ccc(Br)cc2-c2c3c(c4c([n+]21)CCc1ccccc1-4)CCc1ccccc1-3
In ClCCl
  photoluminescence quantum yield: 0.23

## N#Cc1nc(N(Cc2ccccc2)Cc2ccccc2)c(C#N)nc1N(Cc1ccccc1)Cc1ccccc1
In ClC(Cl)Cl
  photoluminescence quantum yield: 0.76

## COc1ccc(/C=C/c2nc3ccccc3o2)cc1
In C1CCCCC1
  photoluminescence quantum yield: 0.006
In CO
  photoluminescence quantum yield: 0.001

## C1=CC2CC1C1C2[C@@]2(c3ccccc3)N=NC1(c1ccccc1)[C@@H]1C[C@H]12 (stereo partly drawn)
In CC#N
  photoluminescence quantum yield: 0.038

## Cc1ccc(-c2sc(/C(C#N)=C/c3ccc(C#N)cc3)nc2-c2ccc(Cl)cc2)cc1
In CC#N
  photoluminescence quantum yield: 0.11

## O=c1c2cc3ccc4cccc5ccc(c2c(=O)n1-c1ccccc1)c3c45
In ClC(Cl)Cl
  photoluminescence quantum yield: 0.5
